# Measurements from US6423693B1, “Growth hormone releasing hormone expression system and methods of use, including use in animals” (Baylor College of Medicine, priority 1997, dated 2002).
# No end group written: not given here.
# Legend:
# [1] = cited from earlier work
# [2] = tested on: GH release; details: synthetic molecules, Ling et al 1984; cited from earlier work
# [3] = tested on: primary pig anterior pituitary cells; assay: GH release from primary pig anterior pituitary culture challenged with conditioned media; format: cell-based; details: 24 h stimulation at 37 C; media from 1 million primary pig myoblasts or media mixed with 10 ng synthetic peptide
# Experimental: Primary pig myoblasts culture was obtained as described (Doumit & Merkel, 1992, Tissue & Cell 24:253-262). The cells were plated at a density of 1 million cells/100 mm plate and maintained in growth media for 2-3 days. The cells were passed for 2 times prior to transfection. The transfection and differentiation was made in the same conditions as for the primary chicken myoblast culture. The media and cells were harvested for analysis 48, 72 and 96 h postdifferentiation in both cases. The efficiency of transfection estimated by β-galactosidase histochemistry on control plates was 10%.
# One day before harvesting, cells were washed twice in HBSS and changed in MEM, 0.1% BSA. The collected media was conditioned by adding ¼ volumes of 1% triflouroacetic acid (TFA) and 0.001% phenylmethylsulfonylflouride (PMSF), frozen at −80° C., lyophilized, purified on C-18 Sep-Columns (Peninsula Laboratories, CA, USA), relyophilized and used in RIA or resuspended in media conditioned for primary pig anterior pituitary culture. […]
# B. In vitro activity of pSK-GHRH. Since anterior pituitary is the natural target of GHRH stimulation, we determined the biological activity of secreted GHRH from the media of pSK-GHRH transfected primary pig myoblasts (FIG. 8). […]
substance,measurement,setting,value
hGHRH(1-40)OH: Human 1-40 OH growth hormone releasing hormone (YADAIFTNSYRKVLGQLSARKLLQDIMSRQQGESNQERGA-OH),potency in vivo relative to hGHRH(1-44)NH2,[1],same potency in vivo as hGHRH(1-44)NH2
"hGHRH(1-44)OH: non-amidated human GHRH (1-44), Tyr1 to Leu44; the molecule expressed by pSK-GHRH (YADAIFTNSYRKVLGQLSARKLLQDIMSRQQGESNQERGARARL-OH; UniProt P01286 32-75, looked up)",less effective in releasing GH than the (1-44) amidated form,[2],30%
"hGHRH (1-44)NH2: synthetic amidated human growth hormone releasing hormone (1-44) (YADAIFTNSYRKVLGQLSARKLLQDIMSRQQGESNQERGARARL-NH2; UniProt P01286 32-75, looked up)",GH release,[3],115 ± 3.2 ng/mL
